PMC9241925, “DWV 3C Protease Uncovers the Diverse Catalytic Triad in Insect RNA Viruses” (Microbiology Spectrum, 2022)
Read-outs that look alike come from different tables or passages of the source. Primed or numbered codes have the meaning given here. *: point of attachment. Dabcyl′ = CN(C)c1ccc(/N=N/c2ccc(C(=O)*)cc2)cc1; EDANS = O=S(=O)(O)c1cccc2c(NCCN*)cccc12

Key:
[1] = target: T1, DWV 3C protease (GST-DWV 3C^pro) (Deformed wing virus, UniProt Q8B3M2); assay: FRET protease assay of GST-DWV 3C^pro with fluorogenic peptide substrate; type: biochemical; conditions: for IC50: pH 6.0, 33°C, n = 3, read-out: IC50 of DWV 3C^pro inhibitors; for Dependence of DWV 3C^pro inhibition on dithiothreitol: absence vs presence of 2 mM DTT
T1 construct: cDNA corresponding to amino acid 2094–2353 of DWV polyprotein; made in house; host or cells: E. coli BL21
Procedure: Dabcyl-PVQAKPEMDNPNPGE-Edans derived from the cleavage site between L-protein and VP2 (underlined, 205-218 of polyprotein) was used as a peptide substrate to measure the protease activity. E was added to the C-terminus to link Edans. FRET experiments were performed with Varioskan LUX multimode microplate reader (Thermo Fisher). We measured 100 μL of reaction mixture with 50 mM Citrate buffer, pH 6.0, 150 mM NaCl, 2 mM EDTA, 2 mM DTT containing 1 μM GST-DWV 3C^pro and 20 μM fluorogenic peptide substrate in a 96-well flat-bottom white microplate at 33°C. The relative fluorescence was measured using an excitation wavelength of 336 nm and by monitoring the emission at 490 nm every 3 min for 30 min. In order to determine the optimal reaction condition for GST-DWV 3C^pro, various pH values, temperatures, and DTT concentrations were used. To test the effect of DTT on the activity, the protein dialyzed against TNE buffer was used. To determine the velocity of product formation, we precalibrated the instrument with the free Edans standard in the presence of 20 μM Dabcyl to calculate the relationship between relative fluorescence and substrate concentration. We calculated the kinetic parameters, Km, Vmax, and catalytic efficiency (Kcat/Km) assuming Michaelis-Menten kinetics for the cleavage of peptide.
To identify the inhibitors for DWV 3C^pro, various concentrations of the tested compounds were added. To determine the inhibitory effects of the various compounds, we preincubated the compound and enzyme on ice for 10 min prior to addition of the peptide substrate. To analyze the effects of ebselen, disulfiram, and carmofur, we used the enzyme dialyzed against TNE buffer and carried out the reaction with or without DTT. We determined the initial velocities of the enzymatic reactions and fitted to a sigmoidal dose-response equation with nonlinear regression analysis using GraphPad Prism 9. The data from three independent assays were used to determine IC50 value of each compound.

[2] = tested on: main protease of SARS-CoV-2; conditions: by covalently modifying cysteine in the catalytic diad; cited from earlier work
DWV [3] = assay: DWV replication (RdRP precursor synthesis, Western blot) in DWV-infected honey bee pupal head cells; type: cell-based, Deformed wing virus (DWV)
Procedure: Honey bee pupae with pale/pink eyes were collected from a mite-free colony. They were surface sterilized by washing with 10% bleach followed by sterile PBS three times (5 min for each wash). Heads from the pupae were dissected and homogenized seven times with 1 mL Grace culture medium using Dounce homogenizer (Loose fitting). The homogenate was then filtered through a cell strainer (Falcon) and the number of cells was counted. 10^6 cells were suspended in 100 μL of Grace medium containing 10% FBS, antibiotics (penicillin and streptomycin), and ebselen at the indicated concentration with or without DWV (MOI: 10) in 24-well plate at 33°C for 1 h. DWV used for this study was one of type A strains (VD-B7) we previously isolated from Varroa mite-infested pupa ([8]). […]
After DWV infection, the pupal head cells were collected by centrifugation, and then homogenized with 150 μL of RIPA buffer (20 mM Tris-HCl, pH 7.5, 150 mM NaCl, 1% NP-40, 0.5% sodium deoxycholate, 0.1% SDS) containing protease inhibitor cocktail. After centrifugation of the homogenate, the protein concentration of supernatant was measured using Enhanced BCA protein assay kit. The cell lysate with 20 μg of protein was analyzed by Western blot for each sample. […] Band intensity of 97 kDa RdRP precursor was measured by image-J.

[4] = tested on: honey bee pupal head cells; assay: Cell viability of honey bee pupal head cells (CellTiter-Lumi, intracellular ATP); type: cell-based, honey bee (Apis mellifera)
Procedure: Honey bee pupal head cells were prepared as described above and 100 μL cell suspension (2 × 10^6/mL) was inoculated to each well in 96-well plate. The cells were cultured in the presence of either DMSO or ebselen at the indicated concentrations at 33°C for 16 h. The cultured plate was first incubated at room temperature for 10 min followed by adding 100 μL of reagent solution (CellTiter-Lumi Luminescent Cell Viability assay kit, Beyotime). The plate was shaken at room temperature for 2 min to promote cell lysis, and then further incubated for 10 min to stabilize the chemiluminescence signal. The signal was detected using Varioskan LUX multimode microplate reader and depends on intracellular ATP level, thus the relative viability of cells.

DWV [5] = tested on: DWV; parameters: method as in PMID 33643262; conditions: based on the synthesis of RdRP, cited from earlier work
enterovirus 3C^pro = tested on: enterovirus 3C^pro; parameters: method as in PMID 21813612, PMID 27645381, PMID 10197965; conditions: cited from earlier work
human rhinovirus 3C^pro = tested on: human rhinovirus 3C^pro; parameters: method as in PMID 21813612, PMID 27645381, PMID 10197965; conditions: cited from earlier work
[6] = tested in the presence of 2 mM DTT, 1 μM enzyme, 20 μM peptide substrate
[7] = compounds tested with or without 2 mM DTT and only effective without DTT
[8] = peptide substrate 2-20 μM, Michaelis-Menten

T1 sequence (Q8B3M2 2094-2353): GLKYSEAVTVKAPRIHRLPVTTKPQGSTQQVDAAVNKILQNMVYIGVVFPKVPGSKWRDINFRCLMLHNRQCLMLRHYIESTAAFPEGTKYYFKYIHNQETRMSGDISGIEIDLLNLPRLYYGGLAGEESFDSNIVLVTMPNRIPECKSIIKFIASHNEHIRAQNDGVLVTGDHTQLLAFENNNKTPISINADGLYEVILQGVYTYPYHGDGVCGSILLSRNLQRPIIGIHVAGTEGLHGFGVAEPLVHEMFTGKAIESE

Molecule | IC50 [1, 6] [µM] | Dependence of DWV 3C^pro inhibition on dithiothreitol [1] | IC50 [1, 7] [µM] | Inhibition of the main protease of SARS-CoV-2 [2] | other results
O=C1C(Cl)=C(Cl)C(=O)c2ncccc21 [6,7-dichloroquinoline-5,8-dione] | 129 ± 1.8 | – | – | – | –
CCCCCCNC(=O)n1cc(F)c(=O)[nH]c1=O [Carmofur] | – | only effective without dithiothreitol | 127 ± 6.2 | inhibit the main protease of SARS-CoV-2 | –
CCN(CC)C(=S)SSC(=S)N(CC)CC [Disulfiram] | – | only effective without dithiothreitol | 35.6 ± 0.8 | inhibit the main protease of SARS-CoV-2 | –
O=c1c2ccccc2[se]n1-c1ccccc1 [Ebselen] | – | only effective without dithiothreitol | 1.66 ± 0.02 | inhibit the main protease of SARS-CoV-2 | Synthesis of the 97 kDa precursor of RdRP and 3C^pro (DWV [3]; DWV-infected pupal head cells, MOI 10, 33°C, 16 h, increasing ebselen concentrations vs DMSO): decreased the synthesis of the 97 kDa precursor of RdRP and 3C^pro in a concentration-dependent manner; DWV replication in honey bee cells (DWV [3]; cultured honey bee cells): inhibited DWV replication; Toxicity to honey bee cells [4]: toxic to the cells; Cell viability (luminescence) vs DMSO ([4]; 30 μM, 16 h, 33°C): no significant difference; Cell viability ([4]; 100 and 250 μM, 16 h, 33°C, vs DMSO): cell viability was reduced
CC(C)C[C@H](NC(=O)OCc1ccccc1)C(=O)N[C@@H](CC1CCNC1=O)C(O)S(=O)(=O)O (some centres unmarked) [GC376] | 55.2 ± 4 | – | – | – | –
O=c1c(O)c(-c2ccc(O)c(O)c2)oc2cc(O)cc(O)c12 [Quercetin] | 430 ± 62.8 | – | – | – | DWV replication in honey bee pupal cells (DWV [5]): inhibited DWV replication
CCOC(=O)/C=C/[C@H](C[C@@H]1CCNC1=O)NC(=O)[C@@H](CC(=O)[C@@H](NC(=O)c1cc(C)on1)C(C)C)Cc1ccc(F)cc1 [Rupintrivir] | 0.36 ± 0.03 | – | – | – | DWV replication in honey bee pupal cells (DWV [5]): inhibited DWV replication; DWV replication in honey bee pupal cells (DWV [5]; listed as rupintrivir): suppresses DWV replication; IC50 (enterovirus 3C^pro): 1.65 to 7.3 µM; IC50 (human rhinovirus 3C^pro): 0.005 µM
[Zn] [Zinc, zinc] | 15200 ± 422 | – | – | – | –
PVQAKPEMDNPNPGE ({Dabcyl′}-PVQAKPEMDNPNPGE-{EDANS}) [Dabcyl-PVQAKPEMDNPNPGE-Edans, 15 amino acid fluorogenic FRET peptide substrate with the DWV L-protein/VP2 cleavage site] | – | – | – | – | Km [1, 8]: 4.23 ± 0.256 µM; Vmax [1, 8]: 0.2538 ± 0.0067 µM/min
